Reference: patent publication US10597364B2, “Anthelmintic compounds, compositions and method of using thereof” (priority 2015, dated 2020)
Read-outs that look alike come from different tables or passages of the source.

Tests used:
Haemonchus contortus = experiment: Method A: Haemonchus contortus L1 larval development/motility screen in microtitre plate; format: cell-based; conditions: 96 h, read-out: motility inhibition
[1] = human, Caco-2, pH 6.5
Procedure: Permeability of Compounds.
An in vitro model utilizing Caco-2/TC7 cells is employed to assess the permeability characteristics of new chemical entities (NCEs).
The permeability studies were performed under standard conditions in the apical to basolateral (A→B) direction with a pH gradient and a BSA gradient (standard apical medium (0.5% BSA at pH 6.5)/standard basal medium (5% BSA at pH 7.4)); conditions that most closely reflect the conditions in the in vivo situation. Samples were deproteinized by the addition of 400 μl acetonitrile to 200 μl sample, followed by a 20-minute centrifugation at 1730 g. Compound solubilisation: compound solutions at final concentrations of 20 μM were prepared following dilutions of stock solutions (starting from 10 mM in DMSO) in HBSS. Final concentration of DMSO was adjusted to 1%. Analytical conditions: Supernatants recovered following centrifugation were analysed by LC/MS/MS using a reverse phase column and the mobile phases delivered at 0.3 ml/minute in a gradient: water (A) and acetonitrile (B) (each with 0.1% formic acid).
Every experiment (n) represents the mean of 3 filters per experiment.

[2] = system: microfilaria of Dirofilaria immitis; experiment: Method C: microfilaria of Dirofilaria immitis motility screen; format: cell-based; conditions: read-out: inhibition of the microfilaria's motility
[3] = system: anthelmintic-resistant isolate of Haemonchus contortus; experiment: Method B: screen against anthelmintic-resistant (benzimidazole-resistant) isolate of Haemonchus contortus; conditions: benzimidazole-resistant H. contortus isolate
Source text: The conditions described in method A were used against an isolate of H. contortus found to be functionally resistant against the benzimidazole class of anthelmintics (e.g. 127-fold resistance to thiabendazole).

Structure (SMILES)	inhibition at 5 µM (Haemonchus contortus)	Papp A→B at 20 μM [1]	inhibition at 10 µM ([2]; 24 h)	further results
O=C(Oc1ccc(F)cc1)N1CCN(c2cncc(O[C@H]3CC[C@H](Nc4ccc([N+](=O)[O-])c(C(F)(F)F)c4)CC3)c2)CC1 [Compound 11]	≥ 90%	0.55 ×10⁻⁶ cm/s		
O=[N+]([O-])c1ccc(N[C@H]2CC[C@H](Oc3ccnc(N4CCN(CC5CCCC5)CC4)c3)CC2)cc1C(F)(F)F [Compound 37, 4-nitro-N-[4-([2-[4-(cyclopentylmethyl)piperazin-1-yl]pyridin-4-yl]oxy)cyclohexyl]-3-(trifluoromethyl)]	≥ 90%	2.55 ×10⁻⁶ cm/s	≥ 90%	
O=C(CC1CCC1)N1CCN(c2cc(O[C@H]3CC[C@H](Nc4ccc([N+](=O)[O-])c(C(F)(F)F)c4)CC3)ccn2)CC1 [Compound 8]	≥ 90%	4.01 ×10⁻⁶ cm/s	≥ 90%	
CCCOC(=O)N1CCN(c2cncc(O[C@H]3CC[C@H](Nc4ccc([N+](=O)[O-])c(C(F)(F)F)c4)CC3)c2)CC1 [Compound 21]	≥ 90%	3.45 ×10⁻⁶ cm/s		inhibition at 5 ppm ([2]; 24 h): ≥ 90%
O=C(Cc1ccc(F)cc1)N1CCN(c2ccnc(O[C@H]3CC[C@H](Nc4ccc([N+](=O)[O-])c(C(F)(F)F)c4)CC3)c2)CC1 [Compound 23]	≥ 90%	1.09 ×10⁻⁶ cm/s	≥ 90%	
CC(C)(C)OC(=O)N1CCN(c2ccnc(O[C@H]3CC[C@H](Nc4ccc([N+](=O)[O-])c(C(F)(F)F)c4)CC3)c2)CC1 [Compound 13]	≥ 90%	0.78 ×10⁻⁶ cm/s		inhibition at 5 ppm ([2]; 24 h): ≥ 90%
O=[N+]([O-])c1ccc(N[C@H]2CC[C@H](Oc3cncc(N4CCN(CC5CCCC5)CC4)c3)CC2)cc1C(F)(F)F [Compound 27]	≥ 90%	2.33 ×10⁻⁶ cm/s	≥ 90%	
O=C(CCC(F)(F)F)N1CCN(c2cc(O[C@H]3CC[C@H](Nc4ccc([N+](=O)[O-])c(C(F)(F)F)c4)CC3)ccn2)CC1 [Compound 24]	≥ 90%	4.46 ×10⁻⁶ cm/s	≥ 90%	
O=C(Cc1ccc(F)cc1)N1CCN(c2cncc(O[C@H]3CC[C@H](Nc4ccc([N+](=O)[O-])c(C(F)(F)F)c4)CC3)c2)CC1 [Compound 22]	≥ 90%	1.57 ×10⁻⁶ cm/s		inhibition at 10 µM ([2]; 10 μM, 24 hours): ≥ 90%
O=C(CC1CCCC1)N1CCN(c2cc(O[C@H]3CC[C@H](Nc4ccc([N+](=O)[O-])c(C(F)(F)F)c4)CC3)ccn2)CC1 [Compound 3, 2-Cyclopentyl-1-[4-(4-[[4-[[4-nitro-3-(trifluoromethyl)phenyl]amino]cyclohexyl]oxy]pyridin-2-yl)piperazin-1-yl]ethan-1-one]		2.64 ×10⁻⁶ cm/s	≥ 90%	
CCCC(=O)N1CCN(c2cncc(O[C@H]3CC[C@H](Nc4ccc([N+](=O)[O-])c(C(F)(F)F)c4)CC3)c2)CC1 [Compound 31]	≥ 90%	10.7 ×10⁻⁶ cm/s		
CCCCC(=O)N1CCN(c2ccnc(O[C@H]3CC[C@H](Nc4ccc([N+](=O)[O-])c(C(F)(F)F)c4)CC3)c2)CC1 [Compound 17]	≥ 90%	3.99 ×10⁻⁶ cm/s		inhibition at 5 ppm ([2]; 24 h): ≥ 90%
CCCOC(=O)N1CCN(c2ccnc(O[C@H]3CC[C@H](Nc4ccc([N+](=O)[O-])c(C(F)(F)F)c4)CC3)c2)CC1 [Compound 36]	≥ 90%	2.41 ×10⁻⁶ cm/s	≥ 90%	
O=[N+]([O-])c1ccc(N[C@H]2CC[C@H](Oc3cncc(N4CCN(Cc5ccc(F)cc5)CC4)c3)CC2)cc1C(F)(F)F [Compound 4, 4-nitro-N-[4-[(5-[4-[(4-fluorophenyl)methyl]piperazin-1-yl]pyridin-3-yl)oxy]cyclohexyl]-3-(trifluoromethyl)aniline]		1.84 ×10⁻⁶ cm/s	≥ 90%	inhibition at 1 µM ([2]; 24 h): ≥ 90%
O=C(OC1CCCC1)N1CCN(c2ccnc(O[C@H]3CC[C@H](Nc4ccc([N+](=O)[O-])c(C(F)(F)F)c4)CC3)c2)CC1 [Compound 9, cyclopentyl 4-[2-[(4-[[4-nitro-3-(trifluoromethyl)phenyl]amino]cyclohexyl)oxy]pyridin-4-yl]piperazine-1-carboxylate]	≥ 90%	1.08 ×10⁻⁶ cm/s		
CC(C)(C)CC(=O)N1CCN(c2cncc(O[C@H]3CC[C@H](Nc4ccc([N+](=O)[O-])c(C(F)(F)F)c4)CC3)c2)CC1 [Compound 35]	≥ 90%	4.99 ×10⁻⁶ cm/s		inhibition at 5 ppm ([2]; 24 h): ≥ 90%
CCCCC(=O)N1CCN(c2cc(O[C@H]3CC[C@H](Nc4ccc([N+](=O)[O-])c(C(F)(F)F)c4)CC3)ccn2)CC1 [Compound 10]	≥ 90%	5.81 ×10⁻⁶ cm/s		
O=[N+]([O-])c1ccc(N[C@H]2CC[C@H](Oc3cncc(N4CCN(Cc5ccc(C(F)(F)F)cc5)CC4)c3)CC2)cc1C(F)(F)F [Compound 18]	≥ 90%	0.53 ×10⁻⁶ cm/s	≥ 90%	

Structure (SMILES)	inhibition at 5 µM (Haemonchus contortus)	Papp A→B at 20 μM [1]	inhibition at 10 µM ([2]; 24 h)	further results
O=C(CC1CCCCC1)N1CCN(c2cc(O[C@H]3CC[C@H](Nc4ccc([N+](=O)[O-])c(C(F)(F)F)c4)CC3)ccn2)CC1 [Compound 14]	≥ 90%	2.28 ×10⁻⁶ cm/s	≥ 90%	
CCCN1CCN(c2cc(O[C@H]3CC[C@H](Nc4ccc([N+](=O)[O-])c(C(F)(F)F)c4)CC3)ccn2)CC1 [Compound 78]	≥ 90%			inhibition at 10 µM ([2]; 10 μM, 24 hours): ≥ 90%
O=C(NC1CCCC1)N1CCN(c2ccnc(O[C@H]3CC[C@H](Nc4ccc([N+](=O)[O-])c(C(F)(F)F)c4)CC3)c2)CC1 [Compound 69]	≥ 90%		≥ 90%	
CC(C)(C)OC(=O)N1CCN(c2cncc(O[C@H]3CC[C@H](Nc4ccc([N+](=O)[O-])c(C(F)(F)F)c4)CC3)c2)CC1 [Compound 15]	≥ 90%	2.07 ×10⁻⁶ cm/s		
CCCC(=O)N1CCN(c2ccnc(O[C@H]3CC[C@H](Nc4ccc([N+](=O)[O-])c(C(F)(F)F)c4)CC3)c2)CC1 [Compound 39]	≥ 90%			inhibition at 5 ppm ([2]; 24 h): ≥ 90%
CC(C)(C)OC(=O)N1CCN(c2ccnc(O[C@H]3CC[C@H](Nc4ccc(C#N)c(C(F)(F)F)c4)CC3)c2)CC1 [Compound 59]	≥ 90%		≥ 90%	
COC(=O)N1CCN(c2cc(O[C@H]3CC[C@H](Nc4ccc([N+](=O)[O-])c(C(F)(F)F)c4)CC3)ccn2)CC1 [Compound 75]	≥ 90%			inhibition at 10 µM ([2]; 10 μM, 24 hours): ≥ 90%
CC(C)(C)OC(=O)N1CCN(c2ccc(O[C@H]3CC[C@H](Nc4ccc([N+](=O)[O-])c(C(F)(F)F)c4)CC3)cn2)CC1 [Compound 83]	≥ 90%			inhibition at 5 ppm ([2]; 24 h): ≥ 90%
O=[N+]([O-])c1ccc(N[C@H]2CC[C@H](Oc3cncc(N4CCN(C(=S)NC5CCCC5)CC4)c3)CC2)cc1C(F)(F)F [Compound 79]	≥ 90%			inhibition at 5 ppm ([2]; 24 h): ≥ 90%
O=C(CC1CC1)N1CCN(c2cc(O[C@H]3CC[C@H](Nc4ccc([N+](=O)[O-])c(C(F)(F)F)c4)CC3)ccn2)CC1 [Compound 28]	≥ 90%		≥ 90%	
O=C(CC1CCCC1)N1CCN(c2ccnc(O[C@H]3CC[C@H](Nc4ccc([N+](=O)[O-])c(C(F)(F)F)c4)CC3)c2)CC1 [Compound 5, 2-cyclopentyl-1-(4-(2-(4-(4-nitro-3-(trifluoromethyl)phenylamino)cyclohexyloxy)pyridin-4-yl)piperazin-1-yl)ethanone]	≥ 90%			inhibition at 5 ppm ([2]; 24 h): ≥ 90%
CCCCN1CCN(c2cncc(O[C@H]3CC[C@H](Nc4ccc([N+](=O)[O-])c(C(F)(F)F)c4)CC3)c2)CC1 [Compound 53]	≥ 90%		≥ 90%	
CCCC(=O)N1CCN(c2cc(O[C@H]3CC[C@H](Nc4ccc([N+](=O)[O-])c(C(F)(F)F)c4)CC3)ccn2)CC1 [Compound 40]	≥ 90%			inhibition at 10 µM ([2]; 10 μM, 24 hours): ≥ 90%
c1ccc2[nH]c(-c3cscn3)nc2c1 [thiabendazole]				resistance of the isolate to thiabendazole [3]: 127 fold
O=C(Cc1ccc(C(F)(F)F)cc1)N1CCN(c2ccnc(O[C@H]3CC[C@H](Nc4ccc([N+](=O)[O-])c(C(F)(F)F)c4)CC3)c2)CC1 [Compound 61]	≥ 90%			inhibition at 5 ppm ([2]; 24 h): ≥ 90%
O=[N+]([O-])c1ccc(N[C@H]2CC[C@H](Oc3ccc(N4CCN(c5ccc6cc(C(F)(F)F)ccc6n5)CC4)nc3)CC2)cc1C(F)(F)F [Compound 102]		0.01 ×10⁻⁶ cm/s		
CC(C)(C)OC(=O)N1CCN(c2cc(O[C@H]3CC[C@H](Nc4ccc([N+](=O)[O-])c(C(F)(F)F)c4)CC3)ccn2)CC1 [Compound 34]	≥ 90%	1.77 ×10⁻⁶ cm/s		inhibition at 5 ppm ([2]; 24 h): ≥ 90%
